For four compounds, Solubility in solvents and Amylase inhibitor unit results are on record in patent publication US4254256A, “Amino sugar compound” (Toyo Jozo company, Ltd., priority 1977, dated 1981).

A short description of one data set: Solubility in solvents. The class given is physicochemical.
Another data set relates to amylase. Briefly: Amylase test in vitro (amylase inhibitor unit). In kind it is biochemical. The conditions noted are these: 1 AIU = amount of inhibitor for about 50% inhibition; starch substrate, pH 6.9, 35° C. The method, then: The amylase activity of the novel amino sugar compound of the present invention was measured by the following method.
Amylase inhibitor unit (1 AIU) is defined as the amount of inhibitor required to control the amylase unit by about 50%. The amylase unit (AU) is the value of enzyme to divide 1μ equivalent of glucoside bond in starch for 1 minute under the following test conditions. The μ equivalent of this divided bond is determined as reduced μ equivalent of sugar formed by Kurie's method which uses dinitrosalicylic acid. Standard curve using maltose is given as μ equivalent of maltose equivalent. A testing solution (0-20 μl) in 0.4 ml of a solution (pH 6.9) containing 0.001 mol of CaCl2, 0-10 μg of the inhibitor and 0.02 mol of sodium glycerophosphate is added to 0.1 ml of an amylase solution (20 to 22 AU/ml). This mixture is equilibrated in a water bath of 35° C. for about 10-20 minutes. Then, this is cultured at 35° C. for 5 minutes together with 0.5 ml of a 1% starch solution (soluble starch No. 1,252 from Marck, Darmstadt) preheated to 35° C. and thereafter 1 ml of dinitrosalicylic acid reagent (P. Bernfeld, Colowick-Kaplan, Meth. Enzymol., 1, 149) is added thereto. For developing color, the batch is heated in a boiling water bath for 5 minutes and then cooled and 10 ml of distilled water is added thereto. Absorbance of 540 nm is measured in comparison with blanks prepared in the same manner without using amylase. For evaluation, amylase activity which is still effective after addition of inhibitor is read from previously recorded amylase standard curve and inhibiting rate (%) of the amylase used is calculated from said amylase activity. The inhibiting rate is plotted as function of the quotient: [formula] Inhibiting point of 50% is read from this curve and is converted to AIU/mg of the inhibitor.

Where [1] appears, read: acetone, ethyl acetate, chloroform.
Where [2] appears, read: water, methanol, dimethylformamide, dimethylsulfoxide, hot ethanol.

For the compound `OCC1=CC(NC2C(CO)OC(O[C@H]3[C@H](O)[C@@H](O)C(O)O[C@@H]3CO)C(O)C2O)C(O)C(O)C1O` (some centres unmarked) [[I] (wherein n=1 and m=0)], the results for the Solubility in solvents result in the data set “Solubility in solvents” (setting [1]) and in “Solubility in solvents” (setting [2]) were “insoluble” and “soluble”, respectively. For the same compound, in the data set on amylase, the Amylase inhibitor unit is given as 3.4×10^2 AIU/mg.

Take `OCC1=CC(NC2C(CO)OC(O[C@H]3[C@H](O)[C@@H](O)C(O[C@H]4[C@H](O)[C@@H](O)C(O)O[C@@H]4CO)O[C@@H]3CO)C(O)C2O)C(O)C(O)C1O` (some centres unmarked) [[I] (wherein n=2 and m=0)]: the Solubility in solvents entry in the data set “Solubility in solvents” (setting [1]) is “insoluble”; in “Solubility in solvents” (setting [2]), “soluble”. Also, the Amylase inhibitor unit in the data set with amylase was 3.6×10^2 AIU/mg.

`OCC1=CC(NC2C(CO)OC(O[C@H]3[C@H](O)[C@@H](O)C(O[C@H]4[C@H](O)[C@@H](O)C(O)O[C@@H]4CO)O[C@@H]3CO)C(O)C2O)C(O)C(O)C1OC1O[C@H](CO)[C@@H](O)[C@H](O)[C@H]1O` (some centres unmarked) [[I] (wherein n=2, m=1)]: in the data set on amylase, the Amylase inhibitor unit is on record as 1.2×10^3 AIU/mg.

Consider `OCC1=CC(NC2C(CO)OC(O[C@H]3[C@H](O)[C@@H](O)C(O[C@H]4[C@H](O)[C@@H](O)C(O[C@H]5[C@H](O)[C@@H](O)C(O)O[C@@H]5CO)O[C@@H]4CO)O[C@@H]3CO)C(O)C2O)C(O)C(O)C1O` (some centres unmarked) [[I] (wherein n=3, m=0)], for which the Amylase inhibitor unit in the data set on amylase was 1.4×10^3 AIU/mg.
